Reference: article PMC5290327, “SC83288 is a clinical development candidate for the treatment of severe malaria” (Nature Communications, 2017)
Several values for one entry are separate records, joined by “and”; a condition that tells them apart may be missing. Equal entries are not always repeated.

What was measured:
GABA (non-selective) = test: Radioligand binding
[1] = tested on: human peripheral blood macrophages; test: Cytotoxicity; settings: 50 μM
Y1 (h) = biological target: T1, Y1 (h) (Homo sapiens, UniProt P25929); test: Radioligand binding
T1 construct: Cerep
T1 sequence (P25929 whole entry): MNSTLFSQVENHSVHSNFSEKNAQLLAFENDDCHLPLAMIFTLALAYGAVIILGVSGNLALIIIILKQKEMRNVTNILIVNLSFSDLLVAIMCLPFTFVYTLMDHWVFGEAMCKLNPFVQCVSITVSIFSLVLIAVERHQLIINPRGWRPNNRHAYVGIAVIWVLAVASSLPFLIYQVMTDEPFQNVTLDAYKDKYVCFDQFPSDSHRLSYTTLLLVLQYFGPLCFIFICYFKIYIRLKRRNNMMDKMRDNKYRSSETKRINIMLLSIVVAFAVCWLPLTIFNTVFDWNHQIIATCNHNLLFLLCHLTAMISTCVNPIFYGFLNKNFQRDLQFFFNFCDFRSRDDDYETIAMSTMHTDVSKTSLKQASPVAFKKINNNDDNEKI

CYP2C19 = CYP2C19 (Homo sapiens, UniProt P33261); test: CYP inhibition, human liver microsomes; settings: 10 µM
Sequence of CYP2C19 (P33261 whole entry): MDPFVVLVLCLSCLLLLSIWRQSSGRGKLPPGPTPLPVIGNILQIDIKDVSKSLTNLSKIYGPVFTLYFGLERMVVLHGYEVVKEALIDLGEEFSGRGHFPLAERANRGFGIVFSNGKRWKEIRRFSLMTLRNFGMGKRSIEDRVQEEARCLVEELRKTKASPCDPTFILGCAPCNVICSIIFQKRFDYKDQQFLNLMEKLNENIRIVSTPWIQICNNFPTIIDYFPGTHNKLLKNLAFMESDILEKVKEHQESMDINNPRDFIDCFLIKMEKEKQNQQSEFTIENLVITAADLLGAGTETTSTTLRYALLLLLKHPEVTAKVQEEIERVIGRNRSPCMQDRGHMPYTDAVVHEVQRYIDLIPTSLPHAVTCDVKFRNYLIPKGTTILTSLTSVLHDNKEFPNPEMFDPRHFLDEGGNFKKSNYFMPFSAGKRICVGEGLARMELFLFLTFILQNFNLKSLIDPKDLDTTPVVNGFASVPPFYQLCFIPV

[2] = Stability in cultured blood cell cultures; type: in vitro ADME; settings: 2 μM, at least 6 h, 37 °C
Procedure: An enriched young trophozoite-stage culture of P. falciparum Dd2 was obtain by magnetic purification and allowed to recover for 1 h at 37 °C in RPMI 1640 medium (Life Technologies) enriched with 1% hypoxanthine (C.C.Pro GmbH) and […] (Life Technologies). The experiment was performed in a total volume of 300 μl, at a haematocrit of 50%, in presence or absence of 2 μM of SC81458 or SC83288, for 6 h at 37 °C under shaking conditions. Each sample was subsequently treated with 1.2 ml of ice-cold acetonitrile, incubated on ice for 10 min and centrifuged for 15 min at 6,000g at 4 °C. Supernatants were stored at −80 °C until mass spectrometric measurement.

NK2 (h) = biological target: T2, NK2 (h) (Homo sapiens, UniProt P21452); test: Radioligand binding
T2 construct: Cerep
T2 sequence (P21452 whole entry): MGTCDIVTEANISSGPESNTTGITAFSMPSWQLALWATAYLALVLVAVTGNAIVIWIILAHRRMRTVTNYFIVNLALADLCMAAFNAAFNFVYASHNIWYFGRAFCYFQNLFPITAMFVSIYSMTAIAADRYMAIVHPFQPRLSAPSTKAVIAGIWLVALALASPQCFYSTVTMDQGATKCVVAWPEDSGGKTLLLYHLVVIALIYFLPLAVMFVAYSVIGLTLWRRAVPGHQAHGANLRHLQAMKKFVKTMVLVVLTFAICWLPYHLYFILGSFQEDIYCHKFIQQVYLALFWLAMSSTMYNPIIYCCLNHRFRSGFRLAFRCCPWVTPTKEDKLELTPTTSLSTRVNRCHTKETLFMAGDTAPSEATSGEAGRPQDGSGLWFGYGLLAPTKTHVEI

KV channel = test: Radioligand binding
A3 (h) = biological target: T3, A3 (h) (Homo sapiens, UniProt P0DMS8); test: Radioligand binding
T3 construct: Cerep (contract study)

[3] = tested on: Dd2 P. falciparum parasites; test: In vitro parasite reduction ratio assay (Sanz protocol); type: cell-based, Plasmodium falciparum; settings: for In vitro PCT99.9% / In vitro lag phase: 10 times IC50, Dd2; for parasites killed within the first 48 h of treatment: in vitro assay and NSG mouse model
P. falciparum strain 7G8 = test: microbe, parasite or virus in culture; type: cell-based; settings: Plasmodium falciparum
[4] = tested on: P. falciparum strains 3D7 and W2; test: Efficacy in the Pf/NSG mouse model; type: in vivo, Plasmodium falciparum; settings: for reduction of parasite burden within the first 24 h: 10.0 mg kg^−1 per day i.p.; for recrudescence of the infection: 3 weeks survey, exception 3D7-infected mice treated with 2.5 mg kg^−1 of SC81458; for In vivo PCT99.9%: i.p. once per day 4 days
[5] = tested on: 54 human transporters and receptors; test: In vitro safety pharmacology profiling, whole panel; type: binding
Procedure: The study was carried out by Cerep (Celle l'Evescault, France). An in vitro pharmacological profiling panel was designed to detect potential high-risk clinical adverse drug reactions. The panel comprised of 54 targets.
The specific ligand binding to the receptors was defined as the difference between the total binding and the non-specific binding determined in the presence of an excess of unlabelled ligand. Results were expressed as a per cent of control specific binding and as a per cent inhibition of control specific obtained in the presence of the test compounds. Results showing an inhibition (or stimulation) >50% were considered to represent significant effects of the test compounds. […] The IC50 values were determined by non-linear regression analysis of the competition curves generated with mean replicate values using Hill equation curve fitting. The inhibition constants (Ki) were calculated using the Cheng Prusoff equation.

[6] = In vitro metabolism in liver microsomes; settings: rat liver microsomes, 10 μM
CYP2E1 = CYP2E1 (Homo sapiens, UniProt P05181); test: CYP inhibition, human liver microsomes; settings: for Remaining enzyme activity: CYP2E1, chlorzoxazone to 6-OH-chlorzoxazone, 10 µM
Sequence of CYP2E1 (P05181 whole entry): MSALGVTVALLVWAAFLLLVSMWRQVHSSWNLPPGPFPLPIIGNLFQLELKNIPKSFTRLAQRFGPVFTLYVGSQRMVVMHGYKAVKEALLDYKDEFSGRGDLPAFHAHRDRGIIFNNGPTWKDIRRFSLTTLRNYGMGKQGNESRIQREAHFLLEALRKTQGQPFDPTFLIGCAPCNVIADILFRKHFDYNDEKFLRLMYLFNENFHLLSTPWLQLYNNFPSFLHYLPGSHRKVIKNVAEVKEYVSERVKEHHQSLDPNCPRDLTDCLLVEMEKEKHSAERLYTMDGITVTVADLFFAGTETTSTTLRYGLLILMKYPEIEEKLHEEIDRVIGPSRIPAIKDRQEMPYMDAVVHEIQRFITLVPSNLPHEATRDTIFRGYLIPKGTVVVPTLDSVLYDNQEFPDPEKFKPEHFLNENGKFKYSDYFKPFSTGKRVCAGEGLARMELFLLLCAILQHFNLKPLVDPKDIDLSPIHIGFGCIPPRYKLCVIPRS

D2S (h) = biological target: T4, D2S (h) (Homo sapiens, UniProt P14416); test: Radioligand binding
T4 construct: Cerep
T4 sequence (P14416 1-414 isoform P14416-2): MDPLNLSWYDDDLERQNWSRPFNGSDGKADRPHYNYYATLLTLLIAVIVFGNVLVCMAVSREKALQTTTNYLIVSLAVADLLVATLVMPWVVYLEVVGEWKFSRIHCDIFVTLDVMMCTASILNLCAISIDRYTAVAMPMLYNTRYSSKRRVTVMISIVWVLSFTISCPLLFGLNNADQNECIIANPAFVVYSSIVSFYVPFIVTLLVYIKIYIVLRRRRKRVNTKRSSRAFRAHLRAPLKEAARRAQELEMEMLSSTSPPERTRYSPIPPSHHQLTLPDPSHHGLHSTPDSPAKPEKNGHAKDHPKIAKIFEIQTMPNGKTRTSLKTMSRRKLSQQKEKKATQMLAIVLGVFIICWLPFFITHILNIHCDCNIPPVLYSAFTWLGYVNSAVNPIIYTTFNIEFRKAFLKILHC

P. falciparum strain K1 = test: microbe, parasite or virus in culture; type: cell-based; settings: Plasmodium falciparum
[7] = In vitro metabolism in liver microsomes; settings: mouse liver microsomes, 10 μM
[8] = In vitro metabolism in liver microsomes; settings: for remaining after 60 min of incubation: human liver microsomes, 10 μM; for microsomal CLint at 10 μM: human, liver microsomes
CYP1A2 = CYP1A2 (Homo sapiens, UniProt P05177); test: CYP inhibition, human liver microsomes; settings: CYP1A2, melatonin to 6-OH-melatonin, 10 µM
[9] = tested on: synchronized Dd2 rings, trophozoites, schizonts; test: Stage-specific activity, 6 h exposure, [3H] hypoxanthine; type: cell-based; settings: Plasmodium falciparum, DD2, 6 h
5-HT1B = biological target: T5, 5-HT1B (Rattus norvegicus, UniProt P28564); test: Radioligand binding
T5 construct: Cerep (contract screening)
T5 sequence (P28564 whole entry): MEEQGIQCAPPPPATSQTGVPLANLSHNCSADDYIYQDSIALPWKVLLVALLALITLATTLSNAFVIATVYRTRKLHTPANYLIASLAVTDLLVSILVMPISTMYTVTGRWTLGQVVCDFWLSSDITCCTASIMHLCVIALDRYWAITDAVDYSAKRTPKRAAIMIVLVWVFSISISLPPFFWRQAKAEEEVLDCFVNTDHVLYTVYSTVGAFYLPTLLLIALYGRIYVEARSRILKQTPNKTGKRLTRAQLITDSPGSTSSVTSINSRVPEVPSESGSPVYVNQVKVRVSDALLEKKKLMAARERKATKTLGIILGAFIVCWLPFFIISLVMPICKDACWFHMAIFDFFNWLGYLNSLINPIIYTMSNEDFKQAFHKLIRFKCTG

[10] = In vitro micronucleus assay; settings: 60 μM
Plasmodium berghei = test: Ex vivo one-cycle growth inhibition assay; type: cell-based
Procedure: This was the case for both an in vivo 4 day dosing regimen of 30 mg kg^−1 per day and an ex vivo one-cycle growth inhibition assay. […] Differential therapeutic efficacy in various rodent model systems is a well-established phenomenon and is typically associated with charged compounds, such as positively charged amidines and negatively charged phosphoric acid or carboxylic acid containing drugs. The phenomenon is explained based on selective uptake of charged compounds through parasite-induced channels, termed new permeation pathways, in the host cell plasma membrane and species-specific characteristics of the new permeation pathways.

5-HT1A (h) = biological target: T6, 5-HT1A (h) (Homo sapiens, UniProt P08908); test: Radioligand binding
T6 construct: Cerep
T6 sequence (P08908 whole entry): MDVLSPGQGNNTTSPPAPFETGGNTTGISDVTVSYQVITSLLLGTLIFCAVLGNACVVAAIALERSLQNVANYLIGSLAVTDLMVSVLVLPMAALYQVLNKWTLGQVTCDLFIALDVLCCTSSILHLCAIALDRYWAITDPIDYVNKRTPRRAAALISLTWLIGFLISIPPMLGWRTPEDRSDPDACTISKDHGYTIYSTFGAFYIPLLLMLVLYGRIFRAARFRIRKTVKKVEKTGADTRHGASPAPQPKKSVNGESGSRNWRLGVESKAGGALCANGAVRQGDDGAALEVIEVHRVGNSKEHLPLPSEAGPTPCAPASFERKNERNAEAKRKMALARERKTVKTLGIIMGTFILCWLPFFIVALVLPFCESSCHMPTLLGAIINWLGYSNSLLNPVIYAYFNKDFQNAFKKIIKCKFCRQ

5-HT transporter (h) = biological target: T7, 5-HT transporter (h) (Homo sapiens, UniProt P31645); test: Radioligand binding
T7 construct: Cerep (contract screening)

CYP2A6 = CYP2A6 (Homo sapiens, UniProt P11509); test: CYP inhibition, human liver microsomes; settings: CYP2A6, coumarin to 7-OH-coumarin, 10 µM
Sequence of CYP2A6 (P11509 whole entry): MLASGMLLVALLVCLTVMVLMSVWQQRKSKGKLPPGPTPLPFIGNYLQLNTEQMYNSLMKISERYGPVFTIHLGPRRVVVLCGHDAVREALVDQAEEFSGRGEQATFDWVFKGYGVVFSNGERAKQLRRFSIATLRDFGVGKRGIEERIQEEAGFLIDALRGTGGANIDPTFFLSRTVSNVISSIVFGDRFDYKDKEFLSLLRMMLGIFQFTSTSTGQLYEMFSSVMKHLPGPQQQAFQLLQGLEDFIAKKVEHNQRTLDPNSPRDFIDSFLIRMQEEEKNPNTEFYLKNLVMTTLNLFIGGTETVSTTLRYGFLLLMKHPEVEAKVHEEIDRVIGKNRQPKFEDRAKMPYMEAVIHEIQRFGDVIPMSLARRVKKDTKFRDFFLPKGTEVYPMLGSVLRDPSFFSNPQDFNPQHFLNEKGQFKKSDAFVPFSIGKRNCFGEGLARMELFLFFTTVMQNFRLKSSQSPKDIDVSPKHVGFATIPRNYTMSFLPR

5-HT2A (h) = biological target: T8, 5-HT2A (h) (Homo sapiens, UniProt P28223); test: Radioligand binding
T8 construct: Cerep (contract screening)
T8 sequence (P28223 whole entry): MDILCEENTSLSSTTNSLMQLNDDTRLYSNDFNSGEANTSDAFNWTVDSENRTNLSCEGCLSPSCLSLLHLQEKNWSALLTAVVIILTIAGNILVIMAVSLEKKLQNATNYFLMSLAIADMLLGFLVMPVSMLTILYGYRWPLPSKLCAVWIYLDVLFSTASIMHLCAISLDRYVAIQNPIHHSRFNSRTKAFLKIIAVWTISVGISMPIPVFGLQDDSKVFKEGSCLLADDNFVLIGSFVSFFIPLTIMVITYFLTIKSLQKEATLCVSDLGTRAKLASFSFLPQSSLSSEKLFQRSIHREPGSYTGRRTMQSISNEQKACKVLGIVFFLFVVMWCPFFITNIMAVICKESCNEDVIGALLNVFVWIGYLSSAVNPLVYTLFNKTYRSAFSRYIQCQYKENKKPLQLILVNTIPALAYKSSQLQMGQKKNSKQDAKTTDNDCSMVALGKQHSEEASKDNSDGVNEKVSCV

k (KOP) = biological target: T9, k (KOP) (Rattus norvegicus, UniProt P34975); test: Radioligand binding
T9 construct: Cerep
T9 sequence (P34975 whole entry): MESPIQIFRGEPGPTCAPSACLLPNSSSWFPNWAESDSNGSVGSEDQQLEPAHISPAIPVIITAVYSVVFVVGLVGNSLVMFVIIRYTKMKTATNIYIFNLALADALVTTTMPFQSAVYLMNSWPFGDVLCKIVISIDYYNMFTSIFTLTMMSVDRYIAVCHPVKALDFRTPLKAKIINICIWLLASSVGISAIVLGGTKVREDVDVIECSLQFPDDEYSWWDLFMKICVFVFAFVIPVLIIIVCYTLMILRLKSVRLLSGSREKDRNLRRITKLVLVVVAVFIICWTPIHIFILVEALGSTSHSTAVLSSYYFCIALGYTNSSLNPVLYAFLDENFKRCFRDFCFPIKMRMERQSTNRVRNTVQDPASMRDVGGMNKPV

5-HT3 (h) = biological target: T10, 5-HT3 (h) (Homo sapiens, UniProt P46098); test: Radioligand binding
T10 construct: Cerep (contract screening)
T10 sequence (P46098 24-478): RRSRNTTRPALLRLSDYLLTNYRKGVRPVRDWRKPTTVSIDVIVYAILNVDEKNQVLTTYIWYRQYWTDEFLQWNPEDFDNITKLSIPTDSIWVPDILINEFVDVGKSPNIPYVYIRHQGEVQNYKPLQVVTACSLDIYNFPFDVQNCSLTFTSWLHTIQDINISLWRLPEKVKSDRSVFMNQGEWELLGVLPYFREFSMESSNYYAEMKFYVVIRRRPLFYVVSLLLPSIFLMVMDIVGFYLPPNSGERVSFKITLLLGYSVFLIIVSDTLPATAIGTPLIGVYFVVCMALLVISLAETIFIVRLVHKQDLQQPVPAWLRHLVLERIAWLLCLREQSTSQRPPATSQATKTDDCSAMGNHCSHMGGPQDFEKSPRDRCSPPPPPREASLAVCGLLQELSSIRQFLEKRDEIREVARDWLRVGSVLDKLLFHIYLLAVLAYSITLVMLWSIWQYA

[11] = CYP2C19a, omeprazole to 5-OH-omeprazole
[12] = CYP2C19b, omeprazole to desmethylomeprazole

## COC(=O)N1CCN(C(=N)c2cccc(NC(=O)Nc3ccc(S(=O)(=O)NCc4ccc(S(N)(=O)=O)cc4)cc3)c2)CC1 [SC83288, methyl 4-(imino(3-(3-(4-(N-(4-sulfamoylbenzyl)sulfamoyl)phenyl)ureido)phenyl)methyl) piperazine-1-carboxylate]
GABA (non-selective)
  Inhibition of control specific binding: 6%
[1]
  in vitro propagation / cytotoxicity: did not affect
Y1 (h)
  Inhibition of control specific binding: 0%
CYP2C19; [11]
  Remaining enzyme activity: 104%
CYP2C19; [12]
  Remaining enzyme activity: 96%
[2]
  stability in human red blood cells and P. falciparum cultures: stable
NK2 (h)
  Inhibition of control specific binding: 20%
KV channel
  Inhibition of control specific binding: 2%
A3 (h)
  Inhibition of control specific binding: 0%
[3]
  In vitro PCT99.9%: 51±6 h and 51±6 (4) h
  In vitro lag phase: <5 h
  parasites killed within the first 48 h of treatment: ≥ 99.9%
P. falciparum strain 7G8
  IC50: 10 ± 1 nM
[4]
  reduction of parasite burden within the first 24 h: ~93%
  recrudescence of the infection: no recrudescence
[4]; NSG mice
  free-minimal parasiticidal concentration (MPC): 200 nM
[4]; NSG mice, 2 days after commencement of treatment, sigmoidal model fit
  ED50 (free plasma concentration): 45 nM
[4]; NSG mice, sigmoidal model fit
  ED90 (free plasma concentration): 80 nM
[4]; humanized NSG mouse
  reduction of parasitemia over a replicative cycle of 48 h: 99.9%
  In vivo PCT99.9%: 48 h
[4]; humanized NSG mouse, no distinction between strains
  In vivo logPRR: 3.0
[5]
  binding potential to 54 human transporters and receptors: low to moderate
[6]
  remaining after 60 min of incubation: 91%
CYP2E1
  Remaining enzyme activity: 68%
CYP2E1; human, pooled liver microsomes, pH 7.4, probe chlorzoxazone (10 μM)
  inhibition at 20 min, 10 µM: 30%
D2S (h)
  Inhibition of control specific binding: 1%
P. falciparum strain K1
  IC50: 5 ± 1 nM
[7]
  remaining after 60 min of incubation: 96%
[8]
  remaining after 60 min of incubation: 50%
  microsomal CLint at 10 μM: 75.8 ± 2.5 µL/min/mg
CYP1A2
  Remaining enzyme activity: 97%
[9]; ring stages
  IC50: 3000 ± 1000 nM
[9]; schizonts
  IC50: 110 ± 30 nM
[9]; trophozoites
  IC50: 40 ± 4 nM
5-HT1B
  Inhibition of control specific binding: 6%
[10]
  mutagenic or clastogenic activity, in vitro micronucleus assay: no signs
Plasmodium berghei
  activity, ex vivo one-cycle growth inhibition assay: inactive
5-HT1A (h)
  Inhibition of control specific binding: 15%
5-HT transporter (h)
  Inhibition of control specific binding: 38%
CYP2A6
  Remaining enzyme activity: 101%
5-HT2A (h)
  Inhibition of control specific binding: 30%
K (KOP)
  Inhibition of control specific binding: 36%
5-HT3 (h)
  Inhibition of control specific binding: 17%

## CCCCN1CCN(C(=N)c2cccc(NC(=O)Nc3ccc(S(=O)(=O)NCc4ccc(S(N)(=O)=O)cc4)cc3)c2)CC1 [SC81458, 4-(3-(3-((4-butylpiperazin-1-yl)(imino)methyl)phenyl)ureido)-N-(4-sulfamoylbenzyl) benzenesulfonamide]
GABA (non-selective)
  Inhibition of control specific binding: 14%
[1]
  in vitro propagation / cytotoxicity: did not affect
Y1 (h)
  Inhibition of control specific binding: 0%
CYP2C19; [11]
  Remaining enzyme activity: 87%
CYP2C19; [12]
  Remaining enzyme activity: 89%
[2]
  stability in human red blood cells and P. falciparum cultures: stable
NK2 (h)
  Inhibition of control specific binding: 51%
KV channel
  Inhibition of control specific binding: 0%
A3 (h)
  Inhibition of control specific binding: 0%
[3]
  In vitro PCT99.9%: 37±4 h and 37±4 (4) h
  In vitro lag phase: <5 h
  parasites killed within the first 48 h of treatment: ≥ 99.9%
P. falciparum strain 7G8
  IC50: 18 ± 5 nM
[4]
  reduction of parasite burden within the first 24 h: ~97%
  recrudescence of the infection: no recrudescence
[4]; humanized NSG mouse
  In vivo PCT99.9%: <48 h
[5]
  binding potential to 54 human transporters and receptors: low to moderate
[6]
  remaining after 60 min of incubation: 74%
CYP2E1
  Remaining enzyme activity: 106%
D2S (h)
  Inhibition of control specific binding: 15%
P. falciparum strain K1
  IC50: 9 ± 3 nM
[7]
  remaining after 60 min of incubation: 54%
[8]
  remaining after 60 min of incubation: almost completely metabolized
[8]; monkey
  microsomal CLint at 10 μM: 303 µL/min/mg
CYP1A2
  Remaining enzyme activity: 95%
[9]; ring stages
  IC50: 5000 ± 1000 nM
[9]; schizonts
  IC50: 70 ± 10 nM
[9]; trophozoites
  IC50: 37 ± 3 nM
5-HT1B
  Inhibition of control specific binding: -3%
[10]
  mutagenic or clastogenic activity, in vitro micronucleus assay: no signs
Plasmodium berghei
  activity, ex vivo one-cycle growth inhibition assay: inactive
5-HT1A (h)
  Inhibition of control specific binding: 2%
5-HT transporter (h)
  Inhibition of control specific binding: 28%
CYP2A6
  Remaining enzyme activity: 98%
5-HT2A (h)
  Inhibition of control specific binding: 17%
K (KOP)
  Inhibition of control specific binding: 43%
5-HT3 (h)
  Inhibition of control specific binding: 1%
